Experimental data as given in patent US20260182575A1, “MOLECULES HAVING PESTICIDAL UTILITY AND INTERMEDIATES AND PROCESSES RELATED THERETO” (CORTEVA AGRISCIENCE LLC, priority 2022, published 2026).

Experiments:
Assay type in all cases: in vivo
[1] = system: Soybean Looper (Chrysodeixis includens, PSEPIN, SBL); test: Bioassay 7: soybean looper, artificial diet, 96 well plate; details: CL
Experimental: (§1) The test solutions were tested against CEW, FAW, BAW, and SBL using the following procedure: an artificial lepidopteran diet (Multispecies Lepidopteran Diet, Southland Products) was distributed in 96 well plate. Twenty μL of test solution was pipetted onto a cell in the bioassay plate. […] Each treatment was replicated 5 times for each species. Approximately five first instar CEW, FAW, BAW, or SBL larva were placed on top of the diet in each cell and was contained with a clear perforated adhesive lid. Test trays were held at approximately 25° C. and ambient relative humidity prior to grading. After five days, the number of cells where all the larvae were dead were recorded as 100% and averaged across all replicates; then the percent control was measured using Abbott's correction formula (W. S. Abbott, J. Econ. Entomol. 18 (1925), pp. 265-267) as follows:
(§2) where X=No. of live larvae on solvent check and Y=No. of live larvae on treated diet. In Table 7 the “Expected % Control” was calculated using the method described in Colby S. R., Weeds, 1967, 15, 20-22. Bioassay 8: Western Corn Rootworm (Diabrotica virgifera virgifera, DIABVI, “WCR”)

[2] = system: Beet Armyworm (Spodoptera exigua, LAPHEG, BAW); test: Bioassay 7: beet armyworm, artificial diet, 96 well plate
Experimental: as §1, §2

[3] = system: Corn Earworm (Helicoverpa zea, HELIZE, CEW); test: Bioassay 7: corn earworm, artificial diet, 96 well plate
Experimental: as §1, §2

[4] = system: Fall Armyworm (Spodoptera frugiperda, LAPHFR, FAW); test: Bioassay 7: fall armyworm, artificial diet, 96 well plate
Experimental: as §1, §2

[5] = system: Corn Earworm (Helicoverpa zea, HELIZE, CEW); test: Bioassay 4: corn earworm, artificial diet, 128-cell tray; details: AI alone
Experimental: (§3) Stock solutions were prepared with F1 as well as for each of the active ingredients individually. Test solutions were prepared from the stock solutions. Test solutions were prepared containing F1, the individual active ingredients, and mixtures of F1 with each of the active ingredients. The test solution for F1 was prepared by adding 500 μL of the stock solution to a 25 mL glass vial, then adding 500 μL of a 9:1 mixture of acetone:water. The individual active ingredients were prepared by adding 500 μL of stock solution to a 25 mL glass vial, then adding 500 μL of a 9:1 mixture of acetone:water. The test solutions containing mixtures of F1, and the individual active ingredients were prepared by adding 500 μL of the active ingredient stock solution to a 25 mL glass vial, followed by 500 μL of the F1 stock solution, creating a test solution containing 0.04% (w/v) of F1 and 0.4% (w/v) of the active ingredient. Each test solution was serially diluted to create desired doses of test solutions (F1 at 0.04% (w/v), 0.004% (w/v), 0.0004% (w/v), 0.00004% (w/v), 0.000004% (w/v), and 0.0000004% (w/v) and active ingredients at 0.4% (w/v), 0.04% (w/v), 0.004% (w/v), 0.0004% (w/v), 0.00004% (w/v), and 0.000004% (w/v)).
(§4) The test solutions were tested against CEW, FAW, and SBL using the following procedure: an artificial lepidopteran diet (Multispecies Lepidopteran Diet, Southland Products) was distributed in 128-cell bioassay trays (Frontier Agricultural Sciences™). 50 μL of test solution was pipetted into a cell in the bioassay tray. (The test solution doses of 0.04% (w/v), 0.004% (w/v), 0.0004% (w/v), 0.00004% (w/v), 0.000004% (w/v), and 0.0000004% (w/v) translated to concentrations of 5, 0.5, 0.05, 0.005, 0.0005, and 0.00005 μg/cm^2 on the diet, respectively.) A reference treatment (solvent check) was treated with the diluent only. Each treatment was replicated 8 times for each species. A 2nd instar CEW, FAW, or SBL larva was placed on top of the diet in each cell and was contained with a clear perforated adhesive lid. Test trays were held at approximately 26° C. and ambient relative humidity (RH) prior to grading.
(§5) After 5 days, the number of live larvae were recorded from each cell and percent control was measured using Abbott's correction formula (W. S. Abbott, J. Econ. Entomol. 18 (1925), pp. 265-267) as follows:
(§6) where X=No. of live larvae on solvent check and Y=No. of live larvae on treated diet. In Table B4 the “Expected % Control” was calculated using the method described in Colby S. R., Weeds, 1967, 15, 20-22. Bioassay 5: Neotropical Brown Stink Bug (Euschistus heros, EUSCHE, “BSB”).

[6] = system: Soybean Looper (Chrysodeixis includens, PSEPIN, SBL); test: Bioassay 4: soybean looper, artificial diet, 128-cell tray; details: AI alone, 0.000004 wt %
Experimental: as §3, §4, §5, §6

[7] = system: Green Peach Aphid (Myzus persicae, MYZUPE, GPA); test: Bioassay 1: green peach aphid, cabbage seedling foliar spray; details: AI alone at the rate of Wt Ratio F1:AI 1:10256 (F1 0.04), 3 days
Experimental: Bioassay 1: Green Peach Aphid (Myzus persicae, MYZUPE, “GPA”).
Stock solutions of F1 and various active ingredients were prepared initially at a concentration of 4 milligrams per milliliter (mg/mL) for F1 and 0.1 mg/mL for the active ingredients, respectively, using a 1:1 mixture of acetone:methanol as a diluent. Stock solutions were prepared with F1 as well as for each of the active ingredients individually. Test solutions were prepared from the stock solutions. Test solutions were prepared containing F1, the individual active ingredients, and mixtures of F1 with each of the active ingredients. The test solutions for F1 and the individual active ingredients were prepared by adding 750 microliters (μL) of stock solution to a 25 mL glass vial, then adding 750 μL of 1:1 acetone:methanol solvent, followed by the addition of 13.5 mL water with 0.025% Tween® 20 to create a 0.0005% (weight/volume (w/v)) solution. The test solutions containing mixtures of F1, and the individual active ingredients were prepared by adding 750 μL of the active ingredient stock solution to a 25 mL glass vial, followed by 750 μL of the F1 stock solution, then by the addition of 13.5 mL water with 0.025% Tween® 20 to create a test solution containing 0.0005% (w/v) F1 and 0.0005% (w/v) of the active ingredient. Each test solution was serially diluted to create desired doses of test solutions (0.0005% (w/v), 0.000125% (w/v), 0.00003125% (w/v), 0.0000078% (w/v), 0.00000195% (w/v), and 0.0000005% (w/v)). In test solutions containing mixtures of F1 and the active ingredients, the active ingredients were diluted as described above, but the concentration of F1 was held constant (0.04% (w/v)).
The test solutions were tested against GPA using the following procedure: cabbage seedlings, grown in 3-inch pots with 2-3 small (3-5 centimeter (cm)) true leaves, were used as test substrate. The seedlings were infested with 20-50 GPA (wingless adult and nymph stages) one day prior to chemical application. Four pots with individual seedlings were used for each treatment. A hand-held aspirator-type sprayer was used for spraying a solution to both sides of […] leaves until runoff. Reference plants (solvent check) were sprayed with the diluent only (0.025% Tween® 20 and 10% acetone:methanol (1:1) in water). Treated plants were held in a holding room for three days at approximately 25° C. and ambient relative humidity (RH about 20% to about 45%) prior to grading. Evaluation was conducted by counting the number of live aphids per plant under a microscope three days after treatment. Percent control was measured using Abbott's correction formula (W. S. Abbott, J. Econ. Entomol. 18 (1925), pp. 265-267) as follows:
where X=No. of live aphids on solvent check plants and Y=No. of live aphids on treated plants. In Table B1 the “Expected % Control” was calculated using the method described in Colby S. R., Weeds, 1967, 15, 20-22. Bioassay 2: Sweet Potato Whitefly (Bemisia tabaci, BEMITA, “SPW”).

[8] = system: Fall Armyworm (Spodoptera frugiperda, LAPHFR, FAW); test: Bioassay 4: fall armyworm, artificial diet, 128-cell tray; details: AI alone, 0.000004 wt %
Experimental: as §3, §4, §5, §6

[9] = system: Sweet Potato Whitefly (Bemisia tabaci, BEMITA, SPW); test: Bioassay 2: sweet potato whitefly, cotton seedling foliar spray; details: AI alone
Experimental: Stock solutions were prepared with F1 as well as for each of the active ingredients individually. Test solutions were prepared from the stock solutions. Test solutions were prepared containing F1, the individual active ingredients, and mixtures of F1 with each of the active ingredients. The test solutions for F1 and the individual active ingredients were prepared by adding 500 μL of stock solution to a 25 mL glass vial, then adding 500 μL of acetone, followed by the addition of 9 mL water with 0.025% Tween® 20 to create a 0.001% (w/v) solution. The test solutions containing mixtures of F1, and the individual active ingredients were prepared by adding 500 μL of the active ingredient stock solution to a 25 mL glass vial, followed by 500 μL of the F1 stock solution, then by the addition of 9 mL water with 0.025% Tween® 20 to create a test solution containing 0.001% (w/v) F1 and 0.001% (w/v) of the active ingredient. Each test solution was serially diluted to create desired doses of test solutions (0.001% (w/v), 0.0001% (w/v), 0.00001% (w/v), 0.000001% (w/v), 0.0000001% (w/v), and 0.00000001% (w/v)).
The test solutions were tested against SPW using the following procedure: Cotton seedlings grown in 3-inch pots, pruned so that only one true leaf remained, were used as test substrate. Adult B. tabaci were allowed to colonize the cotton plants and lay eggs for 24 hours after which all adults were removed from the plants using compressed air. Plants were monitored for egg development, and when crawler emergence was underway (>25% emergence based on visual examination using a microscope), the plants were sprayed using the test solutions and methods described above for green peach aphids (GPA). Treated plants were held in a holding room at approximately 25° C. and ambient relative humidity (RH) prior to grading. Evaluation was conducted by counting the number of developed 2-3 instar nymphs per plant under a microscope 7-9 days after treatment. Percent control was measured using Abbott's correction formula (W. S. Abbott, J. Econ. Entomol. 18 (1925), pp. 265-267) as follows:
where X=No. of live nymphs on solvent check plants and Y=No. of live nymphs on treated plants. In Table B2 the “Expected % Control” was calculated using the method described in Colby S. R., Weeds, 1967, 15, 20-22. Bioassay 3: Western Flower Thrips (Frankliniella occidentalis, FRANOC, “WFT”).

Compound | Average % Control AI ([1]; AI alone at 0.4 wt %) [%] | Average % Control AI ([2]; AI alone at 0.4 wt %) [%] | Average % Control AI ([3]; AI alone at 0.4 wt %) [%] | Average % Control AI ([4]; AI alone at 0.4 wt %) [%] | further results
CNC(=O)O/N=C(\SC)C(=O)N(C)C [Oxamyl] | 0.0 | 0.0 | 0.0 | 0.0 | –
Cc1cc(C)c(C2=C(OC(=O)CC(C)(C)C)C3(CCCC3)OC2=O)c(C)c1 [Spiromesifen] | 12.5 | 12.5 | – | 12.5 | –
O=[N+]([O-])/N=C1\NCCN1Cc1ccc(Cl)nc1 [Imidacloprid] | – | – | – | – | Average % Control AI ([5]; 0.000004 wt %): 0.0%; Average % Control AI ([5]; 0.00004 wt %): 0.0%; Average % Control AI [6]: 12.5%; Average % Control AI [7]: 40.5%; Average % Control AI [8]: 0.0%
O=S(=O)(CCC(F)=C(F)F)c1ncc(Cl)s1 [Fluensulfone] | 12.5 | 0.0 | 0.0 | 0.0 | –
CON(C(=O)c1cn(C)nc1C(F)F)C(C)Cc1c(Cl)cc(Cl)cc1Cl (stereo not drawn) [Pydiflumetofen] | 0.0 | 0.0 | – | 0.0 | –
CO/C=C(/C(=O)OC)c1ccccc1COc1cccc(C(F)(F)F)n1 [Picoxystrobin] | – | – | – | – | Average % Control AI ([1]; AI alone at 0.04 wt %): 0.0%; Average % Control AI ([2]; AI alone at 0.04 wt %): 0.0%; Average % Control AI ([3]; AI alone at 0.04 wt %): 0.0%
CN(C(=O)c1ccccc1)c1cccc(C(=O)Nc2c(Br)cc(C(F)(C(F)(F)F)C(F)(F)F)cc2C(F)(F)F)c1F [Broflanilide] | – | – | – | – | Average % Control AI ([4]; AI alone at 0.004 wt %): 0.0%
O=c1c(-c2cccc(C(F)(F)F)c2)c([O-])[n+](Cc2cncnc2)c2ccccn12 [Triflumezopyrim] | – | – | – | – | Average % Control AI ([5]; 0.000004 wt %): 0.0%; Average % Control AI ([5]; 0.00004 wt %): 0.0%; Average % Control AI ([9]; Wt % AI 0.000001, 7-9 days): 10.1%; Average % Control AI ([9]; Wt % AI 0.00001, 7-9 days): 31.4%; Average % Control AI [6]: 12.5%; Average % Control AI [8]: 0.0%
Trifloxystrobin | – | 20.0 | 0.0 | 16.6 | –
CC(C)c1ccc(Cl)cc1CN(C(=O)c1c(C(F)F)nn(C)c1F)C1CC1 [Isoflucypram] | 0.0 | 0.0 | – | – | –
Cc1cc(C(F)(F)F)nn1CC(=O)N1CCC(c2nc(C3=NOC(c4c(F)cccc4F)C3)cs2)CC1 (stereo not drawn) [Oxathiapiprolin] | 0.0 | – | 0.0 | – | –
CC(C)C1CCC(Cc2ccc(Cl)cc2)C1(O)Cn1cncn1 (stereo not drawn) [Ipconazole] | – | 0.0 | 0.0 | 0.0 | –
COc1ccc(Cl)c(S(=O)(=O)NC(=O)c2cn3cc(C(F)(F)F)cc(Cl)c3n2)c1 [Fluazaindolizine] | 0.0 | – | 0.0 | 0.0 | –
CCNc1nc(CC)c(C(=O)NC(C#N)c2cccs2)s1 (stereo not drawn) [Ethaboxam] | 0.0 | – | 12.5 | 0.0 | –
